Results taken from patent US10647679B2, “N-methyl-D-aspartate receptor (NMDAR) potentiators, pharmaceutical compositions, and uses related thereto” (Emory University, priority 2015, dated 2020).
Read-outs that look alike come from different tables or passages of the source. Each block holds one molecule with its values, some of them ahead of it.

Legend:
Type in all cases: cell-based
[1] = target: T1, recombinant rat GluN1/GluN2B (Rattus norvegicus, UniProt Q00960); test: Two-electrode voltage-clamp (TEVC) recordings in Xenopus laevis oocytes, GluN1/GluN2B; settings: for GluN2B EC50 (μM)/Max %: Max %: maximum potentiation, response without modulator = 100%; for EC50 (max.) (μM %) GluN2B: fitted maximum response: percentage of the initial glutamate (100 μM) and glycine (30 μM) current; for I30 μM/Icontrol (mean ± SEM, %) GluN2B: 30 μM compound, Tables 5-7
T1 construct: expressed in transfected cells; host or cells: Xenopus laevis oocytes (Ecocyte) injected with in vitro transcribed cRNA
Method: (§1) Data are from between 3-26 oocytes from 2-5 frogs for each compound and receptor tested.
(§2) Two-electrode voltage-clamp recordings were performed in Xenopus laevis oocytes (Ecocyte) expressing recombinant rat GluN1/GluN2A, GluN1/GluN2B, GluN1/GluN2C, GluN1/GluN2D. cRNA was transcribed in vitro (Ambion), diluted with nuclease free water, and injected at a ratio of 1:2 GluN1:GluN2 (5-10 ng total cRNA). The oocytes were kept in Barth's solution comprised of (in mM) 88 NaCl, 5 Tris-HCl, 2.4 NaHCO3, 1 KCl, 0.84 MgSO4, 0.41 CaCl2, and 0.33 Ca(NO3)2 at pH 7.4 at 15-17° C. for two to five days before experiments. Oocytes were placed into a perfusion chamber and continually washed with recording solution containing (in mM) 90 NaCl, 1.0 KCl, 0.5 BaCl2, 0.005 EDTA, and 10 HEPES at pH 7.4 (23° C.). Voltage clamp recordings were conducted at a holding potential of −40 mV. All compounds were made as 20 mM stock solutions in DMSO and dissolved to reach the final concentration in recording solution. Final DMSO content was 0.05-0.5% (vol/vol). Some oocytes expressing GluN1/GluN2A were pretreated with […] BAPTA-AM for 10 minutes or injected with […] of 2 mM K-BAPTA to prevent gradual run-up of the current response.

[2] = target: T2, recombinant rat GluN1/GluN2C (Rattus norvegicus, UniProt Q00961); test: Two-electrode voltage-clamp (TEVC) recordings in Xenopus laevis oocytes, GluN1/GluN2C; settings: for GluN2C EC50 (μM)/Max %: Max %: maximum potentiation, response without modulator = 100%; for EC50 (max.) (μM %) GluN2C: fitted maximum response: percentage of the initial glutamate (100 μM) and glycine (30 μM) current; for I30 μM/Icontrol (mean ± SEM, %) GluN2C: 30 μM compound, Tables 5-7
T2 construct: expressed in transfected cells; host or cells: Xenopus laevis oocytes (Ecocyte) injected with in vitro transcribed cRNA
Method: as §1, §2

[3] = target: T3, recombinant rat GluN1/GluN2D (Rattus norvegicus, UniProt Q62645); test: Two-electrode voltage-clamp (TEVC) recordings in Xenopus laevis oocytes, GluN1/GluN2D; settings: for GluN2D EC50 (μM)/Max %: Max %: maximum potentiation, response without modulator = 100%; for EC50 (max.) (μM %) GluN2D: fitted maximum response: percentage of the initial glutamate (100 μM) and glycine (30 μM) current; for I30 μM/Icontrol (mean ± SEM, %) GluN2D: 30 μM compound, Tables 5-7
T3 construct: expressed in transfected cells; host or cells: Xenopus laevis oocytes (Ecocyte) injected with in vitro transcribed cRNA
Method: as §1, §2

[4] = target: T4, recombinant rat GluN1/GluN2B (Rattus norvegicus, UniProt P35439+Q00960); test: Two-electrode voltage-clamp (TEVC) recordings in Xenopus laevis oocytes, GluN1/GluN2B; settings: for EC50: fitted when potentiation at 30 μM exceeded 120%, Tables 3, 5-7, read-out: EC50 (max.) (μM %) GluN2B: fitted EC50
T4 construct: expressed in transfected cells; host or cells: Xenopus laevis oocytes (Ecocyte) injected with in vitro transcribed cRNA
Method: as §1, §2

[5] = target: T5, recombinant rat GluN1/GluN2C (Rattus norvegicus, UniProt P35439+Q00961); test: Two-electrode voltage-clamp (TEVC) recordings in Xenopus laevis oocytes, GluN1/GluN2C
T5 construct: expressed in transfected cells; host or cells: Xenopus laevis oocytes (Ecocyte) injected with in vitro transcribed cRNA
Method: as §1, §2

[6] = percentage of the initial glutamate (100 μM) and glycine (30 μM) current, read-out: EC50 (max.) (μM %) GluN2B: fitted maximum response
[7] = maximum potentiation, response without modulator = 100%, read-out: GluN2B EC50 (μM)/Max %: Max %
[8] = maximum potentiation, response without modulator = 100%, read-out: GluN2C EC50 (μM)/Max %: Max %
[9] = fitted when potentiation at 30 μM exceeded 120%, Tables 3, 5-7, read-out: EC50 (max.) (μM %) GluN2B: fitted EC50
[10] = fitted when potentiation at 30 μM exceeded 120%, Tables 3, 5-7, read-out: EC50 (max.) (μM %) GluN2C: fitted EC50
[11] = fitted when potentiation at 30 μM exceeded 120%, Tables 3, 5-7, read-out: EC50 (max.) (μM %) GluN2D: fitted EC50

T5 sequence (Q00961 20-1237, other chains not shown): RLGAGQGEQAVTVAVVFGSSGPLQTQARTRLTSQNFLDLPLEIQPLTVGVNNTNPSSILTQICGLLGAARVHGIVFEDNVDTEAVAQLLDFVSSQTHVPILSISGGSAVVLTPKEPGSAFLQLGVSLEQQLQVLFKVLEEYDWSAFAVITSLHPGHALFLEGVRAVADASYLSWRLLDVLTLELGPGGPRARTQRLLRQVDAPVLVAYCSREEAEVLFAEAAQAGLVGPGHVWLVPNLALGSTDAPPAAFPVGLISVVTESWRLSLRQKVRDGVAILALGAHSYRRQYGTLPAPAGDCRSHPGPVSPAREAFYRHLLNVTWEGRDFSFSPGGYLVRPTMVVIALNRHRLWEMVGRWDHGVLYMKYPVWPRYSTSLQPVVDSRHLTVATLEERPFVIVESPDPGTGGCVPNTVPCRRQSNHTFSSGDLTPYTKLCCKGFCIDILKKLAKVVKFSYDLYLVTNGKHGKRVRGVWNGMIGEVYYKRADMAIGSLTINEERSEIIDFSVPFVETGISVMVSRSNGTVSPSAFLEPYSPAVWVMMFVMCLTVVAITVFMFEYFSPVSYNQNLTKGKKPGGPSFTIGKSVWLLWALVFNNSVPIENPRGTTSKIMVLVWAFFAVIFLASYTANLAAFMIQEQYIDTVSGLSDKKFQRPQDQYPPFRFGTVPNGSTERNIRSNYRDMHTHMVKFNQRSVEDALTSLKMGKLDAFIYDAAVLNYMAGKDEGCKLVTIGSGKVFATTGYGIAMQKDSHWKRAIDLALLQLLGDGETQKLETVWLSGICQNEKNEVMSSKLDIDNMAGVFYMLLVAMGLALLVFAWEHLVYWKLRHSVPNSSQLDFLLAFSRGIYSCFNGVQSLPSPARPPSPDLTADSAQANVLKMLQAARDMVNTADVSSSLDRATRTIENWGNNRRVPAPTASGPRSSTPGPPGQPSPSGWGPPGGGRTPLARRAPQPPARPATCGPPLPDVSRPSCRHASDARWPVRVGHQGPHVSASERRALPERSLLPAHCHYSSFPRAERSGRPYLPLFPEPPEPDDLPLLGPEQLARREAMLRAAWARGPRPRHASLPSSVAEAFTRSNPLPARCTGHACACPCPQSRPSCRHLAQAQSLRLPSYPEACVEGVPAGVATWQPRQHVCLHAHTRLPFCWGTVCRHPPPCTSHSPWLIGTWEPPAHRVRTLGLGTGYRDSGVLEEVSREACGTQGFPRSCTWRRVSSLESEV
T2 sequence (Q00961 20-1237, other chains not shown): as above
T4 sequence (Q00960 27-1482, other chains not shown): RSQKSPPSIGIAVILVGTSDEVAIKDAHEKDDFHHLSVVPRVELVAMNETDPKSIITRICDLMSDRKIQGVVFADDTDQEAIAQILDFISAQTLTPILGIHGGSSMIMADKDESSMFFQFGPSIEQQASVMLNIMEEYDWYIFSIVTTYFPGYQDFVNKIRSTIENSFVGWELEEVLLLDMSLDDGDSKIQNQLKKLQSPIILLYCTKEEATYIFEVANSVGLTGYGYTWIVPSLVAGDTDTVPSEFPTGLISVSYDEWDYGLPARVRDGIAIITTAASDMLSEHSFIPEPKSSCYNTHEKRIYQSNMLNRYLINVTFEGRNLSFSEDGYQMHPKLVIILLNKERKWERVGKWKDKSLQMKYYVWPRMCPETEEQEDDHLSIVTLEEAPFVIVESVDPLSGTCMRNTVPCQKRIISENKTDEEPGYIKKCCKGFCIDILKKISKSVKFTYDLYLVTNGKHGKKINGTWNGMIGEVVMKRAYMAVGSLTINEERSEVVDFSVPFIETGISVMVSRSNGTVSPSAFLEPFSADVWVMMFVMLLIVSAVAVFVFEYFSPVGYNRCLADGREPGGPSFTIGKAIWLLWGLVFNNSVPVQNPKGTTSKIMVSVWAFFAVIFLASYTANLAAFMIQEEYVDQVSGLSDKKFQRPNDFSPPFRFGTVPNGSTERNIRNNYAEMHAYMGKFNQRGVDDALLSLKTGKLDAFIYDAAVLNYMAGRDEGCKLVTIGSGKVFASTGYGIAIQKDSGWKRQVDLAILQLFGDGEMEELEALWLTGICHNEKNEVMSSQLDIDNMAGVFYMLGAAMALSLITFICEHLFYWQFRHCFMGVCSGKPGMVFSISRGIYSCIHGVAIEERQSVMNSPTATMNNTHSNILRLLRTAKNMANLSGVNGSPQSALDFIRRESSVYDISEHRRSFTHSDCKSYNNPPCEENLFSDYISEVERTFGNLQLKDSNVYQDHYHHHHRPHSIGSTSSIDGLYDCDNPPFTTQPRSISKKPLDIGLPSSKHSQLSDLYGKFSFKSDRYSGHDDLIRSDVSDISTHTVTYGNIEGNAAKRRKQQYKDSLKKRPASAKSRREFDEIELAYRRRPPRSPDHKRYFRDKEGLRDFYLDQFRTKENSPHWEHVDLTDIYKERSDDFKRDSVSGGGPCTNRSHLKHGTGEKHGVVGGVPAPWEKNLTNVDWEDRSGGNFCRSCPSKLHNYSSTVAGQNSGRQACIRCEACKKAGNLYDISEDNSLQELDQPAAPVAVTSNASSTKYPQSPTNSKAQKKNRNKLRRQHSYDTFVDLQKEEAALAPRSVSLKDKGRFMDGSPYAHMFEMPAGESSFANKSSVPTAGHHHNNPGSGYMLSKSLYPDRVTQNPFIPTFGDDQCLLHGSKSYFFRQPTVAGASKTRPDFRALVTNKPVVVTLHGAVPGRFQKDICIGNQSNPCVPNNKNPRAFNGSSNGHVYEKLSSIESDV
T1 sequence (Q00960 27-1482, other chains not shown): as above

GluN2B response % at 30 µM [1]: 100 at 30%
GluN2C response % at 30 µM [2]: 109 at 30%
GluN2D response % at 30 µM [3]: 120 at 30%
Compound: COc1ccc(OCC2c3cc(O)c(OC)cc3CCN2C(=O)C=CC(F)(F)F)cc1 (centres unmarked) [1180-328]

Compound: CCOc1ccc(OCC2c3ccc(OC4CCCC4)cc3CCN2C(=S)c2cccc(F)c2)cc1 (racemic) [1180-162]
EC50 & Max Effect: 2C Max (%) [2]: 218%
EC50 ([2]; read-out: EC50 & Max Effect: 2C): 0.26 µM
EC50 & Max Effect: 2D Max (%) [3]: 295%
EC50 ([3]; read-out: EC50 & Max Effect: 2D): 0.39 µM

Compound: COc1ccc(OCC2c3cc(OC)c(OC)cc3CCN2C(=S)c2cccc(Br)c2)cc1 (racemic) [1180-157]
EC50 & Max Effect: 2C (μM) [2]: Inactive
EC50 & Max Effect: 2D (μM) [3]: Inactive

GluN2C response % at 10 μM ([2]; at 10 μM, Table 9): 142% at 10 μM
Compound: CCOc1ccc(OCC2c3ccc(OC(C)C)cc3CCN2S(=O)(=O)c2cccc(Cl)c2)cc1 (centres unmarked) [1180-199]

EC50 ([1]; untitled tables after drawing 25 and drawing 36, read-out: EC50 (μM) GluN2B): 4.6 µM
GluN2C response % at 30 µM [2]: 127% at
GluN2D response % at 30 µM [3]: 101% at
Compound: CC(C)Oc1ccc(OCC2c3ccc(OC(C)C)cc3CCN2C(=O)c2cccc(Cl)c2)cc1 (centres unmarked) [1180-264]

Compound: CCOc1ccc(OCC2c3ccc(OC(C)C)cc3CCN2C(=O)c2cccc(C(F)(F)F)c2)cc1 (centres unmarked) [1180-92]
EC50 [4]: 2.5 µM
Emax [4, 6]: 122%

Emax ([5]; Tables 11-13, read-out: EC50 & Max Effect: 2C Max (%)): 145%
EC50 & Max Effect: 2D Max (%) ([3]; Tables 11-13): 188%
Compound: COc1ccc(OCC2c3cc(OC)c(OC)cc3CCN2C(=O)c2cccc(Br)c2)cc1 (centres unmarked) [compound 1391]

Emax [4, 7]: 157%
Emax [5, 8]: 169%
Compound: CCOc1ccc(OCC2c3ccc(OC(C)C)cc3CCN2C(=S)c2ccc(Cl)c(Cl)c2)cc1 (centres unmarked) [1180-155]

I10 μM/Icontrol (mean ± SEM, %) GluN2B ([1]; 10 μM compound, Table 3): 212%
EC50 [1, 9]: 0.11 µM
GluN2B EC50 (μM)/Max %: Max % [1]: 262%
EC50 (max.) (μM %) GluN2B: fitted maximum response [1]: (228%)
I10 μM/Icontrol (mean ± SEM, %) GluN2C ([2]; 10 μM compound, Table 3): 272%
EC50 & Max Effect: 2C Max (%) ([2]; Tables 11-13): 247%
EC50 ([2]; Tables 11-13, read-out: EC50 & Max Effect: 2C): 0.43 µM
EC50 [2, 10]: 0.32 µM
GluN2C EC50 (μM)/Max %: Max % [2]: 247%
EC50 (max.) (μM %) GluN2C: fitted maximum response [2]: (273%)
I10 μM/Icontrol (mean ± SEM, %) GluN2D ([3]; 10 μM compound, Table 3): 231%
EC50 & Max Effect: 2D Max (%) ([3]; Tables 11-13): 249%
EC50 ([3]; Tables 11-13, read-out: EC50 & Max Effect: 2D): 0.43 µM
EC50 [3, 11]: 0.14 µM
GluN2D EC50 (μM)/Max %: Max % [3]: 249%
EC50 (max.) (μM %) GluN2D: fitted maximum response [3]: (260%)
Compound: COc1ccc(OCC2c3ccc(OC(C)C)cc3CCN2C(=S)c2cccc(Cl)c2)cc1 (racemic) [1180-163]

I30 μM/Icontrol (mean ± SEM, %) GluN2B [1]: 95%
I30 μM/Icontrol (mean ± SEM, %) GluN2C [2]: 58%
I30 μM/Icontrol (mean ± SEM, %) GluN2D [3]: 74%
Compound: CCOc1ccc(OC[C@H]2c3ccc(OC(C)C)cc3CCN2C(=S)c2cccc(F)c2)cc1 [(R)-(+)-1180-154]

I30 μM/Icontrol (mean ± SEM, %) GluN2B [1]: 184%
EC50 [1, 9]: 0.7 µM
GluN2B EC50 (μM)/Max %: Max % [1]: 200%
EC50 (max.) (μM %) GluN2B: fitted maximum response [1]: (190%)
I30 μM/Icontrol (mean ± SEM, %) GluN2C [2]: 166%
EC50 [2, 10]: 1.4 µM
GluN2C EC50 (μM)/Max %: Max % [2]: 191%
EC50 (max.) (μM %) GluN2C: fitted maximum response [2]: (145%)
I30 μM/Icontrol (mean ± SEM, %) GluN2D [3]: 154%
EC50 [3, 11]: 1.2 µM
GluN2D EC50 (μM)/Max %: Max % [3]: 159%
EC50 (max.) (μM %) GluN2D: fitted maximum response [3]: (153%)
Compound: CCOc1ccc(OCC2c3ccc(OC(C)C)cc3CCN2C(=S)c2cccc(F)c2)cc1 (racemic) [1180-154]

I30 μM/Icontrol (mean ± SEM, %) GluN2B [1]: 103%
I30 μM/Icontrol (mean ± SEM, %) GluN2C [2]: 103%
I30 μM/Icontrol (mean ± SEM, %) GluN2D [3]: 86%
Compound: CCOc1ccc(OC[C@H]2c3ccc(OC(C)C)cc3CCN2C(=O)c2cccc(F)c2)cc1 [(R)-(+)-1180-87]

GluN2B response % at 30 µM [1]: 103% at 30
GluN2C response % at 30 µM [2]: 184% at 30
GluN2D response % at 30 µM [3]: 222% at 30
Compound: CC=CCC(=O)N1CCc2cc(OC)ccc2C1COc1ccc(OC)cc1 (centres unmarked) [1180-235]

Emax [4, 7]: 138%
Emax [5, 8]: 132%
Compound: CCOc1ccc(OCC2c3ccc(OC(C)C)cc3CCN2C(=O)c2cccc(Br)c2)cc1 (centres unmarked) [1180-86]

GluN2B response % at 30 µM [1]: 99% at 30
EC50 ([5]; untitled tables after drawing 25 and drawing 36, read-out: EC50 (μM) GluN2C): 65 µM
GluN2D response % at 100 μM ([3]; at 100 μM): 223% at 100
Compound: COc1ccc(OCC2c3ccc(OC)cc3CCN2C(=O)c2coc(Cl)n2)cc1 (centres unmarked) [1180-247]

EC50 [4]: 0.94 µM
Emax [4, 6]: 163%
I30 μM/Icontrol (mean ± SEM, %) GluN2B [1]: 153%
I30 μM/Icontrol (mean ± SEM, %) GluN2C [2]: 114%
GluN2C potentiation at 3 μM ([2]; at 3 μM, footnote c of Table 7): exceeded 120%
I30 μM/Icontrol (mean ± SEM, %) GluN2D [3]: 102%
GluN2D potentiation at 3 μM ([3]; at 3 μM, footnote c of Table 7): exceeded 120%
Compound: CCOc1ccc(OC[C@@H]2c3ccc(OC(C)C)cc3CCN2C(=O)c2ccc(Cl)c(Cl)c2)cc1 [(S)-(−)-1180-103]
